Consider three compounds from patent publication US10851402B2, “Method for in vitro detection and monitoring of a disease by measuring disease-associated protease activity in extracellular vesicles” (Friedrich-Alexander-Universitaet Erlangen-Nuernberg, priority 2013, dated 2020).

Experiment [1] concerns resting PBMC. Kind of experiment: TNFα secretion of resting PBMC after incubation with EV. The class given is cell-based. Conditions: EV-producing cells incubated with the inhibitor; EV incubated with resting PBMC (6 hours). The method, then: PBMC stimulation with EV and measurement of Cytokine Secretion. PBMC ([…]) were added to each well of a 96-well-U-bottom plate in a total volume of 200 μl (RPMI). 10 μl of exosome preparation from transfected cells (corresponding to 2×10^6 cells or one 10 cm dish) were added per well and […]. When indicated 10 μl PHA (positive control), 50 μM TAPI-1 (Peptides International), or 10 μM U0126 (MAPK-Inhibitor, Promega) were used. Cytokines in the supernatant (200 μl) were measured via the CBA (Cytometric Bead Array) Human Soluble Protein Flex Set System (BD Biosciences).
For confirmation we incubated EV with resting PBMC (6 hours) and measured TNFα release.

Experiment [2] has as its target T1, TACE (Homo sapiens, UniProt P78536).
T1 construct: endogenous in cells; host or cells: 293T cells transfected with Nef/mNAKC (TACE itself not transfected)
Kind of experiment: GFP-proTNF-RFP cleavage and endogenous TACE activity in Nef/mNAKC transfected 293T cells. The class given is cell-based. The note with it: exposure of cultured 293T cells to TAPI. As to the method: Transfections into 293T cells and protein assays. Transient transfections into 293T cells as well as immunoprecipitations and immunoblots were performed as described previously (Baur et al., 1997; Witte et al., 2004; Wolf et al., 2008). In general 20 μg of cellular protein lysate and 10 μg of EV lysate were loaded per lane. The latter corresponded to the secretion from 2-4 mio 293T cells within 48 h. Endogenous TACE activity was measured using SensoLyte®520 TACE (α-Secretase) Activity Assay Kit from AnaSpec, according to the manufacturer's procedures. Cell lysates were generated from 293T cells 24 h after tranfection of Nef/mNAKC. […]
While TACE seemed to be activated by Nef/mNAKC, it was not clear whether and where the protease was functionally active. […] We constructed a GFP-proTNF-RFP fusion protein (G-proTNF-R; FIG. 5A), expecting that the full-length protein would give a yellow signal, which upon TACE-mediated cleavage would mature into prodomain-associated green (GFP) and TNFα-associated red (RFP) fluorescence. […]
In 293T cells the transfected G-proTNF-R construct gave a double positive (GFP/RFP) signal in FACS and a yellow staining in confocal images (FIGS. 5B and E). […] In addition, we measured an increased activity of endogenous TACE in Nef/mNAKC transfected 293T cells using a commercial, substrate-based activity assay (FIG. 20B). […]

T1 sequence (P78536 215-824): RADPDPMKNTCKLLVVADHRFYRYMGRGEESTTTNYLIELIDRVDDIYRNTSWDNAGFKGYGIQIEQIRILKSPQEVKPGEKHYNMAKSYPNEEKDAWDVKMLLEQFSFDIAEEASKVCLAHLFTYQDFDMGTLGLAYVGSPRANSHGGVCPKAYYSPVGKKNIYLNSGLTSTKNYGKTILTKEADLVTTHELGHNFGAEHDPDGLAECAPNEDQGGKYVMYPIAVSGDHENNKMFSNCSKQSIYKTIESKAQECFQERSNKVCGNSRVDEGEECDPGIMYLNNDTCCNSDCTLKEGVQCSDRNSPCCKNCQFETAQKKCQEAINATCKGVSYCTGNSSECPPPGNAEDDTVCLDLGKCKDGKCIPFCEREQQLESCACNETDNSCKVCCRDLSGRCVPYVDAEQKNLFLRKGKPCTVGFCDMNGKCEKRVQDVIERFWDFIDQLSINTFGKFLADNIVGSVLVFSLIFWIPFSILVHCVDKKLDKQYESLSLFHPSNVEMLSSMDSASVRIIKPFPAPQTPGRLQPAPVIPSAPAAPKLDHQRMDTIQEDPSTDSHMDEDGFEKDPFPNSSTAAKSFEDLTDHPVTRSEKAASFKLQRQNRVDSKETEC

With `CC(C)C[C@H](CC(=O)NO)C(=O)N[C@@H](Cc1ccc2ccccc2c1)C(=O)N[C@@H](C)C(=O)NCCN` [TAPI], the TNFα release result in experiment [1] is “significantly reduced”. For the same compound, the “effect of Nef/mNAKC and TACE on G-proTNF-R cleavage and endogenous TACE activity” value in experiment [2] is “reversed”.

For the compound `N#CC(=C(/N)Sc1ccccc1N)/C(C#N)=C(\N)Sc1ccccc1N` [U0126], in experiment [1], the TNFα release entry is reported as “significantly reduced”.

Take `Oc1ccc2ccccc2c1SSc1c(O)ccc2ccccc12` [IPA-3]: the TNFα release result in experiment [1] is given as “significantly reduced”.
